Assay results: patent US20240174744A1, “METHODS OF TREATMENT USING PROTEIN BINDERS TO IRHOM2 EPITOPES” (SCIRHOM GMBH, priority 2021, published 2024)

Tested on: PMA-induced release of IL-6R from PBMCs from patients suffering from rheumatoid arthritis
Assay: ELISA-based IL-6R release assay, PBMCs from RA-patients
Type: cell-based
Conditions: Homo sapiens, PBMC; chimeric antibodies (CHO) 1 μg/ml; Batimastat 10 μM; PMA 25 ng/ml, 24 hours
Procedure: In contrast to Example 34, where the inhibitory effects of the antibodies of the present disclosure on PMA-induced release of endogenous IL-6R from primary human material obtained from healthy donors using peripheral blood mononuclear cells (PBMCs) were tested, this analysis was conducted to analyze the inhibitory effects of the antibodies of the present disclosure on PMA-induced release of endogenous IL-6R from primary human material obtained from patients suffering from rheumatoid arthritis (RA-patients).
In brief, on day 1, Nunc black MaxiSorp® 96-well plates (Thermo Fisher Scientific, USA) were coated overnight with 100 μl per well of mouse anti-human IL-6R capture antibody (provided as part of the DuoSet ELISA kit) at 4 μg/ml TBS at 4° C. […] Using an infinite M1000 (Tecan Group, Switzerland) microplate reader, the fluorescence of each well was collected at an excitation wavelength of 435 nm and an emission wavelength of 555 nm.

`CNC(=O)[C@H](Cc1ccccc1)NC(=O)[C@H](CC(C)C)[C@H](CSc1cccs1)C(=O)NO` [Batimastat] showed an inhibition at 10 µM of 104%.
